Values joined by “and” are separate entries in the source; they are usually repeats but may differ in a detail not shown here. Equal entries are not always repeated. Inconclusive results and toxic doses are left out.
System: L1210 leukemia ip in BDF1 mice, survival T/C
Assay: NCI In Vivo Anticancer Drug Screen. Data for tumor model L1210 Leukemia (intraperitoneal) in B6D2F1 (BDF1) mice
Settings: endpoint: mean survival time, higher = longer survival
Outline: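 Ratio derived from survival: compound-dosed mice over vehicle-dosed mice, all bearing a transplantable tumor.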

[1] = dose: 100.0 mg/kg/injection, schedule: Q04DX003 (ip), vehicle: Klucel (hydroxypropylcellulose) (HPC)
[2] = dose: 100.0 mg/kg/injection, schedule: Q01DX001 (ip), vehicle: Klucel (hydroxypropylcellulose) (HPC)
[3] = dose: 200.0 mg/kg/injection, schedule: Q01DX001 (ip), vehicle: Klucel (hydroxypropylcellulose) (HPC)
[4] = dose: 400.0 mg/kg/injection, schedule: Q01DX001 (ip), vehicle: Klucel (hydroxypropylcellulose) (HPC)
[5] = dose: 25.0 mg/kg/injection, schedule: Q01DX009 (ip), vehicle: Klucel (hydroxypropylcellulose) (HPC)
[6] = dose: 50.0 mg/kg/injection, schedule: Q01DX009 (ip), vehicle: Klucel (hydroxypropylcellulose) (HPC)
[7] = dose: 200.0 mg/kg/injection, schedule: Q01DX009 (ip), vehicle: Klucel (hydroxypropylcellulose) (HPC)
[8] = dose: 100.0 mg/kg/injection, schedule: Q01DX009 (ip), vehicle: Klucel (hydroxypropylcellulose) (HPC)
[9] = dose: 25.0 mg/kg/injection, schedule: Q04DX003 (ip), vehicle: Klucel (hydroxypropylcellulose) (HPC)
[10] = dose: 50.0 mg/kg/injection, schedule: Q04DX003 (ip), vehicle: Klucel (hydroxypropylcellulose) (HPC)
[11] = dose: 100.0 mg/kg/injection, schedule: Q01DX001 (ip), vehicle: carboxymethylcellulose (CMC)
[12] = dose: 200.0 mg/kg/injection, schedule: Q01DX001 (ip), vehicle: carboxymethylcellulose (CMC)
[13] = dose: 400.0 mg/kg/injection, schedule: Q01DX001 (ip), vehicle: carboxymethylcellulose (CMC)
[14] = dose: 400.0 mg/kg/injection, schedule: Q01DX009 (ip), vehicle: Klucel (hydroxypropylcellulose) (HPC)

Compound: CCOC(=O)CCOc1ccccc1N(CCCl)CCCl
- T/C (dose: 1.2 mg/kg/injection, schedule: Q01DX Z (ip), vehicle: methylcellulose (MC)): 110 % of control and 121 % of control
- T/C (dose: 2.4 mg/kg/injection, schedule: Q01DX Z (ip), vehicle: methylcellulose (MC)): 110 % of control and 113 % of control
- T/C (dose: 3.13 mg/kg/injection, schedule: Q01DX009 (ip), vehicle: other): 115 % of control
- T/C (dose: 4.7 mg/kg/injection, schedule: Q01DX Z (ip), vehicle: methylcellulose (MC)): 108 % of control and 111 % of control
- T/C (dose: 6.2 mg/kg/injection, schedule: Q01DX001 (ip), vehicle: carboxymethylcellulose (CMC)): 109 % of control
- T/C (dose: 8.7 mg/kg/injection, schedule: Q01DX Z (ip), vehicle: methylcellulose (MC)): 178 % of control
- T/C (dose: 9.4 mg/kg/injection, schedule: Q01DX Z (ip), vehicle: methylcellulose (MC)): 100 % of control and 120 % of control
- T/C (dose: 12.5 mg/kg/injection, schedule: Q04DX003 (ip), vehicle: other): 106 % of control
- T/C (dose: 13.0 mg/kg/injection, schedule: Q01DX Z (ip), vehicle: methylcellulose (MC)): 161 % of control
- T/C (dose: 22.0 mg/kg/injection, schedule: Q01DX001 (ip), vehicle: carboxymethylcellulose (CMC)): 109 % of control
- T/C (dose: 25.0 mg/kg/injection, schedule: Q01DX001 (ip), vehicle: carboxymethylcellulose (CMC)): 124 % of control
- T/C (dose: 25.0 mg/kg/injection, schedule: Q01DX009 (ip), vehicle: saline sonified): 110 % of control
- T/C (dose: 25.0 mg/kg/injection, schedule: Q04DX003 (ip), vehicle: other): 106 % of control
- T/C (dose: 33.0 mg/kg/injection, schedule: Q01DX001 (ip), vehicle: carboxymethylcellulose (CMC)): 109 % of control
- T/C (dose: 44.0 mg/kg/injection, schedule: Q01DX Z (ip), vehicle: methylcellulose (MC)): 201 % of control
- T/C (dose: 50.0 mg/kg/injection, schedule: Q01DX009 (ip), vehicle: saline sonified): 114 % of control
- T/C (dose: 50.0 mg/kg/injection, schedule: Q01DX009 (ip), vehicle: saline with Tween-80): 162 % of control
- T/C (dose: 66.0 mg/kg/injection, schedule: Q01DX Z (ip), vehicle: methylcellulose (MC)): 159 % of control
- T/C (dose: 75.0 mg/kg/injection, schedule: Q01DX001 (ip), vehicle: carboxymethylcellulose (CMC)): 112 % of control
- T/C (dose: 75.0 mg/kg/injection, schedule: Q01DX Z (ip), vehicle: methylcellulose (MC)): 86 % of control
- T/C (dose: 100.0 mg/kg/injection, schedule: Q01DX Z (ip), vehicle: methylcellulose (MC)): 109 % of control
- T/C [1]: 90 % of control

Compound: O=C(CCCc1ccc(N(CCCl)CCCl)cc1)Nc1ncccn1
- T/C (dose: 1.0 mg/kg/injection, schedule: Q01DX015 (ip), vehicle: carboxymethylcellulose (CMC)): 113 % of control
- T/C (dose: 3.0 mg/kg/injection, schedule: Q01DX015 (ip), vehicle: carboxymethylcellulose (CMC)): 118 % of control
- T/C (dose: 6.0 mg/kg/injection, schedule: Q01DX015 (ip), vehicle: carboxymethylcellulose (CMC)): 118 % of control
- T/C (dose: 6.25 mg/kg/injection, schedule: Q01DX001 (ip), vehicle: saline): 110 % of control
- T/C (dose: 12.0 mg/kg/injection, schedule: Q01DX015 (ip), vehicle: carboxymethylcellulose (CMC)): 123 % of control
- T/C (dose: 12.5 mg/kg/injection, schedule: Q01DX001 (ip), vehicle: saline): 110 % of control
- T/C (dose: 25.0 mg/kg/injection, schedule: Q01DX001 (ip), vehicle: saline): 121 % of control

Compound: Cc1ncc2c(=O)n(-c3ccc(C(=O)O)cc3)[nH]c2n1
- T/C (dose: 75.0 mg/kg/injection, schedule: Q04DX003 (ip), vehicle: Klucel (hydroxypropylcellulose) (HPC)): 103 % of control
- T/C [2]: 94 % of control
- T/C (dose: 150.0 mg/kg/injection, schedule: Q04DX003 (ip), vehicle: Klucel (hydroxypropylcellulose) (HPC)): 106 % of control
- T/C [3]: 97 % of control
- T/C (dose: 300.0 mg/kg/injection, schedule: Q04DX003 (ip), vehicle: Klucel (hydroxypropylcellulose) (HPC)): 90 % of control
- T/C [4]: 110 % of control

Compound: COC(=O)c1cc([N+](=O)[O-])c(Br)s1
- T/C [1]: 93 % of control

Compound: CCOc1ccc(NC(=O)Nc2cccc(F)c2)cc1
- T/C (dose: 12.5 mg/kg/injection, schedule: Q01DX009 (ip), vehicle: Klucel (hydroxypropylcellulose) (HPC)): 88 % of control
- T/C [5]: 90 % of control
- T/C [6]: 88 % of control
- T/C [7]: 90 % of control

Compound: CC1C(=O)C2CCCCC2C1=O (stereo not drawn)
- T/C (dose: 100.0 mg/kg/injection, schedule: Q01DX001 (ip), vehicle: saline): 96 % of control
- T/C (dose: 200.0 mg/kg/injection, schedule: Q01DX001 (ip), vehicle: saline): 96 % of control
- T/C (dose: 400.0 mg/kg/injection, schedule: Q01DX001 (ip), vehicle: saline): 100 % of control

Compound: S=c1[nH]nc(NC2CCCCC2)s1
- T/C (dose: 100.0 mg/kg/injection, schedule: Q01DX009 (ip), vehicle: other): 91 % of control
- T/C (dose: 100.0 mg/kg/injection, schedule: Q04DX003 (ip), vehicle: saline): 88 % of control
- T/C (dose: 200.0 mg/kg/injection, schedule: Q04DX003 (ip), vehicle: saline): 91 % of control
- T/C (dose: 400.0 mg/kg/injection, schedule: Q04DX003 (ip), vehicle: saline): 86 % of control

Compound: O=C(c1ccccc1)C(Cl)c1ccccc1 (stereo not drawn)
- T/C [5]: 105 % of control
- T/C [6]: 111 % of control
- T/C [8]: 107 % of control

Compound: Cc1cc(=O)[nH]c(N2C(=O)c3ccccc3C2=O)n1
- T/C [9]: 99 % of control
- T/C [10]: 102 % of control

Compound: CCCCCCCCCCC(=O)OCC1OC2C(Oc3nc(=N)ccn32)C1OC(=O)CCCCCCCCCC (stereo not drawn)
- T/C (dose: 25.0 mg/kg/injection, schedule: Q01DX009 (ip), vehicle: water): 166 % of control
- T/C (dose: 50.0 mg/kg/injection, schedule: Q01DX009 (ip), vehicle: water): 210 % of control

Compound: C[N+](C)(C)c1ccc(N2C(=O)C3C4c5ccccc5C(C3C2=O)[n+]2ccccc24)cc1 (stereo not drawn)
- T/C (dose: 1.56 mg/kg/injection, schedule: Q01DX009 (ip), vehicle: Klucel (hydroxypropylcellulose) (HPC)): 103 % of control
- T/C (dose: 3.12 mg/kg/injection, schedule: Q01DX009 (ip), vehicle: Klucel (hydroxypropylcellulose) (HPC)): 97 % of control
- T/C (dose: 6.25 mg/kg/injection, schedule: Q01DX009 (ip), vehicle: Klucel (hydroxypropylcellulose) (HPC)): 100 % of control
- T/C (dose: 12.5 mg/kg/injection, schedule: Q04DX003 (ip), vehicle: saline): 101 % of control
- T/C (dose: 25.0 mg/kg/injection, schedule: Q04DX003 (ip), vehicle: saline): 94 % of control

Compound: C1=CCC2CN(CCCN3CCOCC3)CC2C1 (stereo not drawn)
- T/C (dose: 100.0 mg/kg/injection, schedule: Q01DX001 (ip), vehicle: saline with Tween-80): 103 % of control
- T/C (dose: 200.0 mg/kg/injection, schedule: Q01DX001 (ip), vehicle: saline with Tween-80): 108 % of control
- T/C (dose: 400.0 mg/kg/injection, schedule: Q01DX001 (ip), vehicle: saline with Tween-80): 105 % of control

Compound: O=C(c1ccccc1)C(Cl)C(=O)c1ccccc1
- T/C (dose: 12.5 mg/kg/injection, schedule: Q04DX003 (ip), vehicle: Klucel (hydroxypropylcellulose) (HPC)): 94 % of control
- T/C [9]: 115 % of control
- T/C [10]: 96 % of control
- T/C [2]: 98 % of control
- T/C [1]: 100 % of control
- T/C [3]: 97 % of control
- T/C [4]: 95 % of control

Compound: O=C(O)CCSC(=S)Nc1ccccc1O
- T/C [11]: 103 % of control
- T/C [12]: 93 % of control
- T/C [13]: 98 % of control

Compound: COc1ncnc2nc[nH]c12
- T/C (dose: 50.0 mg/kg/injection, schedule: Q01DX001 (ip), vehicle: Klucel (hydroxypropylcellulose) (HPC)): 97 % of control
- T/C [2]: 103 % of control
- T/C [8]: 101 % of control
- T/C [1]: 97 % of control
- T/C [3]: 98 % of control
- T/C [7]: 102 % of control
- T/C (dose: 200.0 mg/kg/injection, schedule: Q04DX003 (ip), vehicle: Klucel (hydroxypropylcellulose) (HPC)): 105 % of control
- T/C [4]: 101 % of control
- T/C [14]: 98 % of control
- T/C (dose: 400.0 mg/kg/injection, schedule: Q04DX003 (ip), vehicle: Klucel (hydroxypropylcellulose) (HPC)): 106 % of control

Compound: CC1CC=C(N2CCOCC2)CC1 (stereo not drawn)
- T/C [8]: 98 % of control
- T/C [7]: 97 % of control
- T/C [14]: 103 % of control

Compound: O=C(N/N=C/c1ccc(Cl)c([N+](=O)[O-])c1)C(O)(c1ccccc1)c1ccccc1
- T/C [11]: 103 % of control
- T/C [12]: 95 % of control
- T/C [13]: 101 % of control

Source: PubChem BioAssay AID248 (DTP/NCI, 2004)
